In patent US20230158005A1 (priority 2020, published 2023):
Values joined by “and” are separate entries in the source; they are usually repeats but may differ in a detail not shown here. Identical values can stand only once.

Experiments:
[1] = test system: A/Solomon Islands/03/2006 (H1N1); assay type: cell-based, influenza A virus
A/Hawaii/15/2001 (H1N1) = assay type: cell-based, influenza A virus
[2] = test system: A/California/07/2009 (H1N1); assay type: cell-based, influenza A virus
[3] = test system: A/Minnesota/19/2011 (H1N1); assay type: cell-based, influenza A virus
[4] = test system: A/New Jersey/8/1976 (H1N1); assay type: cell-based, influenza A virus
A/USSR/90/1977 (H1N1) = assay type: cell-based, influenza A virus
[5] = test system: A/Puerto Rico/8/1934 (H1N1); assay type: cell-based, influenza A virus
[6] = test system: A/New Caledonia/20/1999 (H1N1); assay type: cell-based, influenza A virus
A/Indiana/08/2011 (H3N2) = assay type: cell-based, influenza A virus
[7] = test system: A/California/02/2014 (H3N2); assay type: cell-based, influenza A virus
A/Texas/71/2007 (H3N2) = assay type: cell-based, influenza A virus
A/Perth/16/2009 (H3N2) = assay type: cell-based, influenza A virus
A/Fujian/413/2002 (H3N2) = assay type: cell-based, influenza A virus
A/Alaska/140/2015 (H3N2) = assay type: cell-based, influenza A virus
[8] = test system: A/Hong Kong/156/1997 (H5N1); assay type: cell-based, influenza A virus
[9] = test system: A/Egypt/N6658/2011 (H5N1); assay type: cell-based, influenza A virus
[10] = test system: A/Vietnam/1203/2004 (H5N1); assay type: cell-based, influenza A virus
[11] = test system: A/Indonesia/05/2005 (H5N1); assay type: cell-based, influenza A virus
A/Anhui/1/2013 (H7N9) = assay type: cell-based, influenza A virus
[12] = test system: panel of 20 influenza A viruses; assay type: cell-based, influenza A virus
NL4-3 WT HIV-1 virus = assay: Infectious HIV-1 released by infected MT-2 cells (TZM-bl luciferase reporter); assay type: cell-based; settings: 10 nM, 48 hours
MT-2 human T cell line = assay: Cytotoxicity against uninfected MT-2 cells; assay type: cell-based; settings: 1 µM, 48 hours
[13] = test system: Nipah virus (Malaysian strain); assay: microbe, parasite or virus in culture; assay type: cell-based
[14] = test system: A549 human lung carcinoma cells; settings: human
in vitro [15] = settings: human, % Dif (absorbance as percent relative to the vehicle control, relative viability)
in vitro [16] = settings: human
[17] = test system: relapsed/refractory, locally advanced or metastatic solid tumors; settings: preliminary clinical results, cited from earlier work

Structure (SMILES): CC1=C(COCCC(C)(C)C)C(=O)N(Nc2ccc(C(F)(F)F)c(Cl)n2)C1=O [felezonexor, 3-[(3,3-dimethylbutoxy)methyl]-1-{[6-chloro-5-(trifluoromethyl) (2-pyridyl)]amino}-4-methylazoline-2,5-dione]
- Virus titer AVG [1]: 6.00 log10TCID50/mL and 7.17 log10TCID50/mL and 7.79 log10TCID50/mL
- Virus titer, replicates 1-3 [1]: 6.50 log10TCID50/mL and 6.75 log10TCID50/mL and 7.38 log10TCID50/mL and 5.75 log10TCID50/mL (2×) and 7.50 log10TCID50/mL (2×) and 8.50 log10TCID50/mL and 7.25 log10TCID50/mL
- Virus titer AVG (A/Hawaii/15/2001 (H1N1)): 2.67 log10TCID50/mL and 3.67 log10TCID50/mL and 4.83 log10TCID50/mL
- Virus titer, replicates 1-3 (A/Hawaii/15/2001 (H1N1)): 2.50 log10TCID50/mL and 3.75 log10TCID50/mL (2×) and 4.75 log10TCID50/mL (2×) and 2.75 log10TCID50/mL (2×) and 3.50 log10TCID50/mL and 5.00 log10TCID50/mL
- Virus titer AVG [2]: 2.75 log10TCID50/mL and 4.42 log10TCID50/mL and 5.42 log10TCID50/mL
- Virus titer, replicates 1-3 [2]: 3.25 log10TCID50/mL and 4.25 log10TCID50/mL and 5.50 log10TCID50/mL and 2.50 log10TCID50/mL (2×) and 4.50 log10TCID50/mL (2×) and 5.75 log10TCID50/mL and 5.00 log10TCID50/mL
- reduction in viral titers [2]: greater than 1.0 log10TCID50/mL
- Virus titer, replicates 1-3 [3]: 2.50 log10TCID50/mL and 6.75 log10TCID50/mL (2×) and 7.25 log10TCID50/mL (2×) and 3.25 log10TCID50/mL and 8.50 log10TCID50/mL and 2.75 log10TCID50/mL and 9.25 log10TCID50/mL
- reduction in viral titers [3]: greater than 1.0 log10TCID50/mL
- Virus titer AVG [4]: 3.67 log10TCID50/mL and 4.00 log10TCID50/mL and 4.17 log10TCID50/mL
- Virus titer, replicates 1-3 [4]: 3.75 log10TCID50/mL (3×) and 3.50 log10TCID50/mL (2×) and 4.25 log10TCID50/mL (3×) and 4.50 log10TCID50/mL
- reduction in viral titers [4]: greater than 1.0 log10TCID50/mL
- Virus titer, replicates 1-3 (A/USSR/90/1977 (H1N1)): 1.50 log10TCID50/mL (3×) and 5.25 log10TCID50/mL and 5.75 log10TCID50/mL (3×) and 4.25 log10TCID50/mL (2×)
- reduction in viral titers (A/USSR/90/1977 (H1N1)): greater than 1.0 log10TCID50/mL
- Virus titer AVG [5]: 3.42 log10TCID50/mL and 4.92 log10TCID50/mL
- Virus titer, replicates 1-3 [5]: 3.50 log10TCID50/mL (2×) and 3.25 log10TCID50/mL (3×) and 4.75 log10TCID50/mL and 4.50 log10TCID50/mL and 3.75 log10TCID50/mL and 5.50 log10TCID50/mL
- reduction in viral titers [5]: greater than 1.0 log10TCID50/mL
- Virus titer AVG [6]: 7.17 log10TCID50/mL and 6.83 log10TCID50/mL and 7.00 log10TCID50/mL
- Virus titer, replicates 1-3 [6]: 6.75 log10TCID50/mL (2×) and 7.25 log10TCID50/mL (2×) and 8.00 log10TCID50/mL and 6.50 log10TCID50/mL (3×) and 7.50 log10TCID50/mL
- reduction in viral titers [6]: no reduction in viral titers
- Virus titer, replicates 1-3 (A/Indiana/08/2011 (H3N2)): 3.25 log10TCID50/mL (2×) and 5.50 log10TCID50/mL (2×) and 6.75 log10TCID50/mL and 6.50 log10TCID50/mL and 7.50 log10TCID50/mL and 2.75 log10TCID50/mL and 8.50 log10TCID50/mL
- reduction in viral titers (A/Indiana/08/2011 (H3N2)): greater than 1.0 log10TCID50/mL
- Virus titer, replicates 1-3 [7]: 1.50 log10TCID50/mL (3×) and 5.25 log10TCID50/mL and 6.50 log10TCID50/mL (2×) and 4.75 log10TCID50/mL and 7.75 log10TCID50/mL and 4.50 log10TCID50/mL
- reduction in viral titers [7]: greater than 1.0 log10TCID50/mL
- Virus titer AVG (A/Texas/71/2007 (H3N2)): 2.50 log10TCID50/mL and 3.33 log10TCID50/mL and 3.92 log10TCID50/mL
- Virus titer, replicates 1-3 (A/Texas/71/2007 (H3N2)): 3.25 log10TCID50/mL (2×) and 4.00 log10TCID50/mL and 3.75 log10TCID50/mL (2×) and 2.75 log10TCID50/mL (2×) and 1.50 log10TCID50/mL and 4.25 log10TCID50/mL
- reduction in viral titers (A/Texas/71/2007 (H3N2)): greater than 1.0 log10TCID50/mL
- Virus titer, replicates 1-3 (A/Perth/16/2009 (H3N2)): 2.25 log10TCID50/mL and 3.50 log10TCID50/mL (2×) and 4.75 log10TCID50/mL and 1.50 log10TCID50/mL and 4.25 log10TCID50/mL (2×) and 2.50 log10TCID50/mL and 3.25 log10TCID50/mL
- Virus titer AVG (A/Fujian/413/2002 (H3N2)): 3.25 log10TCID50/mL and 3.50 log10TCID50/mL
- Virus titer, replicates 1-3 (A/Fujian/413/2002 (H3N2)): 3.00 log10TCID50/mL and 3.25 log10TCID50/mL (3×) and 3.50 log10TCID50/mL (2×) and 3.75 log10TCID50/mL (2×) and 2.75 log10TCID50/mL
- reduction in viral titers (A/Fujian/413/2002 (H3N2)): no reduction in viral titers
- Virus titer, replicates 1-3 (A/Alaska/140/2015 (H3N2)): 1.50 log10TCID50/mL (4×) and 6.50 log10TCID50/mL and 2.50 log10TCID50/mL and 7.00 log10TCID50/mL and 2.25 log10TCID50/mL and 6.25 log10TCID50/mL
- reduction in viral titers (A/Alaska/140/2015 (H3N2)): greater than 1.0 log10TCID50/mL
- Virus titer AVG [8]: 2.42 log10TCID50/mL and 3.58 log10TCID50/mL and 4.50 log10TCID50/mL
- Virus titer, replicates 1-3 [8]: 2.25 log10TCID50/mL (2×) and 3.50 log10TCID50/mL (2×) and 4.25 log10TCID50/mL and 2.75 log10TCID50/mL and 4.75 log10TCID50/mL and 3.75 log10TCID50/mL and 4.50 log10TCID50/mL
- reduction in viral titers [8]: greater than 1.0 log10TCID50/mL
- Virus titer AVG [9]: 4.08 log10TCID50/mL and 4.33 log10TCID50/mL and 4.92 log10TCID50/mL
- Virus titer, replicates 1-3 [9]: 4.00 log10TCID50/mL and 4.25 log10TCID50/mL (2×) and 5.50 log10TCID50/mL and 4.50 log10TCID50/mL (3×) and 3.75 log10TCID50/mL and 4.75 log10TCID50/mL
- reduction in viral titers [9]: greater than 1.0 log10TCID50/mL
- Virus titer AVG [10]: 6.58 log10TCID50/mL and 8.50 log10TCID50/mL and 8.17 log10TCID50/mL
- Virus titer, replicates 1-3 [10]: 6.50 log10TCID50/mL (2×) and 8.25 log10TCID50/mL (2×) and 8.50 log10TCID50/mL and 6.75 log10TCID50/mL and 7.75 log10TCID50/mL (2×) and 9.50 log10TCID50/mL
- reduction in viral titers [10]: greater than 1.0 log10TCID50/mL
- Virus titer AVG [11]: 4.83 log10TCID50/mL and 6.92 log10TCID50/mL and 7.58 log10TCID50/mL
- Virus titer, replicates 1-3 [11]: 4.50 log10TCID50/mL and 6.50 log10TCID50/mL and 7.50 log10TCID50/mL (3×) and 5.25 log10TCID50/mL and 6.75 log10TCID50/mL and 4.75 log10TCID50/mL and 7.75 log10TCID50/mL
- reduction in viral titers [11]: greater than 1.0 log10TCID50/mL
- Virus titer AVG (A/Anhui/1/2013 (H7N9)): 1.50 log10TCID50/mL and 2.50 log10TCID50/mL and 2.67 log10TCID50/mL
- Virus titer, replicates 1-3 (A/Anhui/1/2013 (H7N9)): 1.50 log10TCID50/mL (3×) and 2.25 log10TCID50/mL and 2.75 log10TCID50/mL (3×) and 2.50 log10TCID50/mL (2×)
- reduction in viral titers (A/Anhui/1/2013 (H7N9)): greater than 1.0 log10TCID50/mL
- strains with viral titers reduced at least 3-fold compared to untreated controls [12]: 17 out of 20 strains
- strains with viral titers reduced at least 10-fold compared to untreated controls [12]: 13 out of 20 strains
- reduction of the production of infectious virus (NL4-3 WT HIV-1 virus): more than 50%
- MT-2 cells killed (MT-2 human T cell line): about 50%
- selectivity index (SI, CC50/EC50) [13]: 12
- EC50 ([13]; Henipavirus nipahense, HeLa, 48 h, read-out: EC50 (compound concentration that reduces viral replication by 50%)): 20 nM
- tolerated concentration (relative viability equivalent or greater than untreated controls) [14]: up to 100 nM
- % Dif (absorbance as percent relative to the vehicle control, relative viability) ([14]; 0.5 µM): 71.6%
- viability at 0.05 µM (in vitro [15]): 101%
- viability at 0.1 µM (in vitro [15]): 125%
- viability at 0.25 µM (in vitro [15]): 66.2%
- viability at 0.5 µM (in vitro [15]): 71.6%
- viability at 1 µM (in vitro [15]): 58.7%
- CC50 (in vitro [16]): 240 nM
- Safety and tolerability ([17]; 57 patients with solid tumors): manageable
- most common treatment related adverse events ([17]; 57 patients with solid tumors): gastrointestinal (nausea, vomiting, and diarrhea) and constitutional (fatigue, decreased appetite)
- antitumor activity ([17]; 57 patients, heavily pre-treated solid tumors): durable responses, including a partial response
